Laboratory results taken from patent US20250002471A1 (Gilead Sciences, Inc., priority 2020, published 2025).
pEC50: −log10 of the molar value.

Target: T1, TLR8 (Homo sapiens, UniProt Q9NR97)
T1 construct: lymphocytes, monocytes and dendritic cells that express TLR7, TLR8 and TLR9; endogenous in cells; host or cells: human PBMCs from healthy donors
T1 sequence (Q9NR97 27-1041): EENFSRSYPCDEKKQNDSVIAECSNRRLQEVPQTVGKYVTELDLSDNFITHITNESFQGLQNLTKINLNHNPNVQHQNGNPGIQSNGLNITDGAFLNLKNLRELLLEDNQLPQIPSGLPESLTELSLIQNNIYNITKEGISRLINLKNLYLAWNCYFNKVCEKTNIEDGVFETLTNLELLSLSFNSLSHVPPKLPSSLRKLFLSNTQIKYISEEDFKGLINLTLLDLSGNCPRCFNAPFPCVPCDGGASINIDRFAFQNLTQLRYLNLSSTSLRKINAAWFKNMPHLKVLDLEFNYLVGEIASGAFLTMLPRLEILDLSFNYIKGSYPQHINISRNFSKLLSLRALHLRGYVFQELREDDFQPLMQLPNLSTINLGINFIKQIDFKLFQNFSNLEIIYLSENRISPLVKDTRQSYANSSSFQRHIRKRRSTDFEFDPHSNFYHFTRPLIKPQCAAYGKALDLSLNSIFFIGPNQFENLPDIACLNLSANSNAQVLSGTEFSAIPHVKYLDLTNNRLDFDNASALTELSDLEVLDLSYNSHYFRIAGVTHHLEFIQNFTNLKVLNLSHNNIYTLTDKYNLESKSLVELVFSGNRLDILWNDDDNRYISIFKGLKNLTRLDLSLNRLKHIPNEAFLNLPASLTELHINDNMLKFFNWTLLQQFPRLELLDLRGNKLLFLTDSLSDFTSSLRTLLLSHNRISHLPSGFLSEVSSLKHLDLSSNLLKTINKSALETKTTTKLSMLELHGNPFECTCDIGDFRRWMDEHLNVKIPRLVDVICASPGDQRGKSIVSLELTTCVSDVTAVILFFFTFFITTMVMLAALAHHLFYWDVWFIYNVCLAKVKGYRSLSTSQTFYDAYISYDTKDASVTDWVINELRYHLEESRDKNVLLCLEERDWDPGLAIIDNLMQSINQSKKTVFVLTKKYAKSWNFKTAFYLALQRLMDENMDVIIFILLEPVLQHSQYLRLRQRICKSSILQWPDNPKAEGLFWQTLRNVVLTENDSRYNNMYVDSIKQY
Assay: TLR8 human PBMC cell-based assay, TLR8 agonist Compound A stimulation, cytokine (TNFa and IL12p40) readout
Conditions: human PBMCs, Compound A 800 nM, 6 hours; Table 26; read-out: TLR-8 EC50
Experimental: Cryopreserved human PBMCs from healthy donors were thawed and resuspended in RPMI-1640 media with L-glutamine (Corning) supplemented with 10% Fetal Bovine Serum (Hyclone) and 1X Penicillin-Streptomycin (Corning). After counting, the cell density was adjusted to 2 million cells/ml and incubated for 1 hour at 37° C., 5% CO2 for recovery. Following the recovery, the cells were plated by adding 50p per well (100,000 cells) to 384-well cell culture plates (Greiner) containing 250nl of test antagonists in 100% DMSO per well, in a 10 points dose response in quadruplicates. PBMCs were incubated in the presence of antagonists for one hour at 37° C., 5% CO2 before being stimulated with TLR8 agonist. Compound A (Gilead Sciences, U.S. Pat. No. 10,285,990) was used as the TLR8 agonist at a final concentration of 800 nM. PBMCs were incubated in the presence of antagonist and the TLR8 agonist for an additional 6 hours at 37° C., […]. At the end of the incubation, the cell culture plates were centrifuged at 500 g for 5 min, and the cell culture supernatant was collected. The level of cytokines (TNFa and IL12p40) in the supernatant was measured by electrochemiluminescence immunoassays (Mesoscale Discovery) following manufacturer's recommended protocols. The level of cytokine measured was plotted against the antagonist concentration and fitted to a sigmoidal function to determine the EC50, which are shown below in Table 11.

| Compound | pEC50 |
| --- | --- |
| Cc1c(-c2cc(C)c3ncnn3c2)[nH]c2cc(-c3ccc(N4CCNCC4)nc3)ccc12 [Example 71] | 7.45 |
| Cc1cc(-c2[nH]c3cc(C4CCNCC4)ccc3c2C(C)C)cn2ncnc12 [Example 55] | 8.04 |
| Cc1cc(-c2[nH]c3cc(-c4ccc(N5CCNCC5)nc4)ccc3c2C)cc(C)n1 [Example 1, 2-(2,6-dimethylpyridin-4-yl)-3-methyl-6-(6-(piperazin-1-yl)pyridin-3-yl)-1H-indole] | 6.11 |
| Cc1cc(-c2[nH]c3cc(-c4ccc(N5CCNCC5)nc4)ccc3c2C2CC2)cn(C)c1=O [Example 165] | 8.07 |
| CCc1c(-c2cc(C)c3ncnn3c2)[nH]c2cc(-c3ccc(N4CCNCC4)nc3)ccc12 [Example 167, 6-(3-ethyl-6-(6-(piperazin-1-yl)pyridin-3-yl)-1H-indol-2-yl)-8-methyl-[1,2,4]triazolo[1,5-a]pyridine] | 8.43 |
| CCc1c(-c2cc(OC)c3ncnn3c2)[nH]c2cc(-c3ccc(N4CCNCC4)nc3)ccc12 [Example 169] | 8.47 |
| Cc1cc(-c2[nH]c3cc(-c4ccc(N5CCN(CCO)CC5)nc4)ccc3c2C)cc(C)n1 [Example 37, 2-(4-(5-(2-(2,6-dimethylpyridin-4-yl)-3-methyl-1H-indol-6-yl)pyridin-2-yl)piperazin-1-yl)ethan-1-ol] | 6.20 |
| Cc1cc(-c2[nH]c3cc(C4CCNCC4)ccc3c2C)cc(C)n1 [Example 48, 2-(2,6-dimethylpyridin-4-yl)-3-methyl-6-(piperidin-4-yl)-1H-indole] | 6.24 |
